Reference: patent US20190358181A1, “METHODS FOR AUTISM SPECTRUM DISORDER PHARMACOTHERAPY” (priority 2017, published 2019)

Tested on: 610 metabolites from 63 biochemical pathways
Experiment: Targeted broad-spectrum plasma metabolomic analysis (LC-MS/MS), paired pre-infusion vs post-infusion (2-days and 6-weeks)
Assay type: in vivo, human
Conditions: for Linear Ratio / VIP Score / Z Abs / Z Score: plasma
Protocol: Targeted, broad-spectrum, plasma metabolomic analysis of 610 metabolites from 63 biochemical pathways was performed by high performance liquid chromatography and tandem mass spectrometry (LC-MS/MS) on the samples collected from patients in Example 1. Venous blood was collected between the hours of 8 am and 5 pm, at least 3 hours after the last meal, into lithium-heparin vacutainer tubes (BD #367884). Plasma was separated by centrifugation at 900 g×10 minutes at room temperature within one hour of collection. The resulting fresh lithium-heparin plasma was transferred to labeled 1.2 ml or 2.0 ml externally threaded cryotubes with a minimum headspace air gap for storage at −80° C. for analysis. Samples were analyzed on an AB SCIEX QTRAP 5500 triple quadrupole mass spectrometer equipped with a Turbo V electrospray ionization (ESI) source, Shimadzu LC-20A UHPLC system, and a PAL CTC autosampler. Typically, 90 μl of plasma was thawed on ice and transferred to a 1.7 ml Eppendorf tube. Five (5.0) μl of a cocktail containing 25-35 commercial stable isotope internal standards, and 5.0 μl of 57 stable isotope internal standards that were custom-synthesized in E. coli NCM3722, Caenorhabditis elegans N2, and Komagataella phaffii (ATCC 76273; formerly known as Pichia pastoris) by metabolic labeling with 13C-glucose and 13C-bicarbonate, were added, mixed, and incubated for 10 min at 20° C. to permit small molecules and vitamins in the internal standards to associate with plasma binding proteins. Macromolecules (protein, DNA, RNA, glycans, etc.) were precipitated by extraction with 4 volumes (400 μl) of cold (−20° C.), acetonitrile:methanol (50:50) (LCMS grade, Cat #LC015-2.5 and GC230-4, Burdick & Jackson, Honeywell), vortexed vigorously, and incubated on crushed ice for 10 min, then removed by centrifugation at 16,000 g×10 min at 4° C. The supernatants containing the extracted metabolites and internal standards in the resulting 40:40:20 solvent mix of acetonitrile:methanol:water were transferred to labeled cryotubes and stored at −80° C. for LCMS/MS analysis.
LC-MS/MS analysis was performed by scheduled multiple reaction monitoring (sMRM) under Analyst v1.6.2 software control in both negative and positive mode with rapid polarity switching (50 ms). Nitrogen was used for curtain gas (set to 30), collision gas (set to high), ion source gas 1 and 2 (set to 35). The source temperature was 500° C. Spray voltage was set to −4500 V in negative mode and 5500 V in positive mode. The values for Q1 and Q3 mass-to-charge ratios (m/z), declustering potential (DP), entrance potential (EP), collision energy (CE), and collision cell exit potential (CXP) were determined and optimized for each MRM for each metabolite. Ten microliters of extract was injected by PAL CTC autosampler via a 10 μl stainless steel loop into a 250 mm×2.0 mm, 4 μm polymer based NH2 HPLC column (Asahipak NH2P-40 2E, Showa Denko America, Inc., NY) held at 25° C. for chromatographic separation. The mobile phase was solvent A: 95% water with 20 mM (NH4)2CO3 (Sigma, Fluka Cat #74415-250G-F), 5% acetonitrile, and 38 mM NH4OH (Sigma, Fluka Cat #17837-100ML), final pH 9.75; solvent B: 100% acetonitrile. Separation was achieved using the following gradient: 0-3.5 min: 95% B, 3.6-8 min: 85% B, 8.1-13 min: 75% B, 13.5-35 min: 0% B, 36-46 min: 95% B, 46.1 min: end. The flow rate was 200 μl/min. Pump pressures ranged from 920-2600 psi over the course of the gradient. All the samples were kept at 4° C. during analysis. The chromatographic peaks were identified using MultiQuant (v3.0, Sciex), confirmed by manual inspection, and the peak areas integrated. […]

[1] = Branch Chain Amino Acid Metabolism, 2-days
[2] = Branch Chain Amino Acid Metabolism, 6-weeks
[3] = Chenodeoxyglycocholic acid, 6-weeks
[4] = Cholesterol, Cortisol, Non-Gonadal Steroid Metabolism, 6-weeks
[5] = Cholesterol, Cortisol, Non-Gonadal Steroid, 2-days
[6] = Cyclic adenosine monophosphate, 6-weeks
[7] = Deoxy guanosine diphosphate, 6-weeks
[8] = Eicosanoid and Resolvin Metabolism, 2-days
[9] = Endocannabinoid Metabolism, 2-days
[10] = Fatty Acid Oxidation and Synthesis, 2-days
[11] = Fatty Acid Oxidation and Synthesis, 6-weeks

## Cc1ccc(C(=O)Nc2ccc(S(=O)(=O)O)c3cc(S(=O)(=O)O)cc(S(=O)(=O)O)c23)cc1NC(=O)c1cccc(NC(=O)Nc2cccc(C(=O)Nc3cc(C(=O)Nc4ccc(S(=O)(=O)O)c5cc(S(=O)(=O)O)cc(S(=O)(=O)O)c45)ccc3C)c2)c1 [Suramin, suramin]
[1]
  Fold Enrichment (Obs/Exp): 2.4
  Fraction of Impact (VIP Score) Explained (% of 119.7): 6%
  Impact (Sum VIP Score): 7.3
  Increased: 4
  Observed Hits in the Top 61 Metabolites: 4
[2]
  Decreased: 0
  Fold Enrichment (Obs/Exp): 3.0
  Fraction of Impact (VIP Score) Explained (% of 94.6): 8%
  Impact (Sum VIP Score): 7.4
  Increased: 4
  Observed Hits in the Top 48 Metabolites: 4
Cardiolipin Metabolism, 2-days
  Decreased: 0
  Fold Enrichment (Obs/Exp): 2.0
  Fraction of Impact (VIP Score) Explained (% of 119.7): 3%
  Impact (Sum VIP Score): 3.1
  Increased: 2
  Observed Hits in the Top 61 Metabolites: 2
Ceramide Metabolism, 2-days
  Decreased: 0
  Fold Enrichment (Obs/Exp): 0.2
  Fraction of Impact (VIP Score) Explained (% of 119.7): 1%
  Impact (Sum VIP Score): 1.5
  Increased: 1
  Observed Hits in the Top 61 Metabolites: 1
Chenodeoxycholic acid, 6-weeks
  Linear Ratio: 2.080
  VIP Score: 1.670
  Z Abs: 1.575
  Z Score: 1.575
[3]
  Linear Ratio: 2.858
  VIP Score: 2.052
  Z Abs: 1.650
  Z Score: 1.650
[4]
  Decreased: 0
  Fold Enrichment (Obs/Exp): 1.1
  Fraction of Impact (VIP Score) Explained (% of 94.6): 4%
  Impact (Sum VIP Score): 3.5
  Increased: 2
  Observed Hits in the Top 48 Metabolites: 2
[5]
  Decreased: 0
  Fold Enrichment (Obs/Exp): 0.4
  Fraction of Impact (VIP Score) Explained (% of 119.7): 2%
  Impact (Sum VIP Score): 1.8
  Increased: 1
  Observed Hits in the Top 61 Metabolites: 1
Cinnamoylglycine, 6-weeks
  Linear Ratio: 1.190
  VIP Score: 1.790
  Z Abs: 2.218
  Z Score: 2.218
Citric acid, 6-weeks
  Linear Ratio: 1.363
  VIP Score: 2.410
  Z Abs: 1.772
  Z Score: 1.772
[6]
  Linear Ratio: 0.701
  VIP Score: 1.962
  Z Abs: 1.544
  Z Score: −1.544
Cysteamine, 6-weeks
  Linear Ratio: 1.157
  VIP Score: 2.060
  Z Abs: 2.007
  Z Score: 2.007
Cytosine, 6-weeks
  Linear Ratio: 1.932
  VIP Score: 2.442
  Z Abs: 2.582
  Z Score: 2.582
Decanoylcarnitine, 6-weeks
  Linear Ratio: 0.644
  VIP Score: 1.617
  Z Abs: 1.157
  Z Score: −1.157
[7]
  Linear Ratio: 0.864
  VIP Score: 1.915
  Z Abs: 1.583
  Z Score: −1.583
[8]
  Decreased: 4
  Fold Enrichment (Obs/Exp): 2.2
  Fraction of Impact (VIP Score) Explained (% of 119.7): 6%
  Impact (Sum VIP Score): 7.1
  Increased: 0
  Observed Hits in the Top 61 Metabolites: 4
[9]
  Decreased: 1
  Fold Enrichment (Obs/Exp): 1.8
  Fraction of Impact (VIP Score) Explained (% of 119.7): 1%
  Impact (Sum VIP Score): 1.7
  Increased: 0
  Observed Hits in the Top 61 Metabolites: 1
[10]
  Decreased: 1
  Fold Enrichment (Obs/Exp): 0.2
  Fraction of Impact (VIP Score) Explained (% of 119.7): 2%
  Impact (Sum VIP Score): 1.8
  Increased: 0
  Observed Hits in the Top 61 Metabolites: 1
[11]
  Decreased: 3
  Fold Enrichment (Obs/Exp): 0.7
  Fraction of Impact (VIP Score) Explained (% of 94.6): 5%
  Impact (Sum VIP Score): 5.0
